Experimental data taken from ChEMBL document CHEMBL6096703 (J Med Chem, 2025).
Calls of active or inactive are those of the source. The rule behind the calls is not given here.

How the values were obtained:
[1] = Half life in rat at 2.5 mg/kg, po measured upto 96 hrs by LC-MS/MS analysis; format: ADME, organism-based; conditions: in vivo
[2] = Acute toxicity in Kunming mouse assessed as change in kidney structure at 300 mg/kg administered via gavage for 14 days by H and E staining based analysis; format: organism-based; conditions: in vivo, po, 336 h, time 14 day
DLD-1 = experiment: Inhibition of colony formation in BRCA2 knockout human DLD-1 cells assessed as reduction in survival rate incubated for 10 days by crystal violet staining based assay; format: functional, cell-based; conditions: dose 0.1-100 nM, time 10.0 day
[3] = Tmax in rat at 2.5 mg/kg, iv measured upto 96 hrs by LC-MS/MS analysis; format: ADME, organism-based; conditions: in vivo
MDA-MB-436 [4] = experiment: Induction of DNA damage in human MDA-MB-436 cells assessed as increase in gammaH2AX foci at 0.1 to 1000 nM incubated for 3 days by DAPI staining based immunofluorescence analysis; format: functional, cell-based; conditions: dose 0.1-1000 nM, time 3.0 day
[5] = Sub-acute toxicity in Kunming mouse assessed as change UREAL level at 30 to 100 mg/kg administered via gavage once every other day for 14 days; format: organism-based; conditions: in vivo, po, 336 h, dose 30-100 mg/kg, time 14 day
[6] = Half life in rat at 2.5 mg/kg, iv measured upto 96 hrs by LC-MS/MS analysis; format: ADME, organism-based; conditions: in vivo
[7] = Cmax in rat at 2.5 mg/kg, iv measured upto 96 hrs by LC-MS/MS analysis; format: ADME, organism-based; conditions: in vivo
[8] = Toxicity in female NOD/SCID mouse xenografted with human MDA-MB-436 cells assessed as histological changes in heart at 3 mg/kg, po administered once every other day for 28 days by H and E staining based analysis; format: organism-based; conditions: in vivo, 672 h, time 28 day
MDA-MB-436 [9] = experiment: Induction of apoptosis in human MDA-MB-436 cells assessed as late apoptotic cells at 100 nM incubated for 3 days by Annexin V/ PI staining based flow cytometry (reference value: 6.57%); format: functional; conditions: time 3 day
[10] = Sub-acute toxicity in Kunming mouse assessed as change ALB2 level at 30 to 100 mg/kg administered via gavage once every other day for 14 days; format: organism-based; conditions: in vivo, po, 336 h, dose 30-100 mg/kg, time 14 day
[11] = Acute toxicity in Kunming mouse assessed as mortality at 30 to 100 mg/kg administered via gavage once every other day for 14 days; format: organism-based; conditions: in vivo, po, 336 h, dose 30-100 mg/kg, time 14 day
[12] = Half life in male Balb/c mouse at 1 mg/kg, iv measured upto 96 hrs by LC-MS/MS analysis; format: ADME, organism-based; conditions: in vivo, iv, 1 mg/kg, 96 h
[13] = Sub-acute toxicity in Kunming mouse assessed as change CREA2 level at 100 to 300 mg/kg administered via gavage for 14 days; format: organism-based; conditions: in vivo, po, 336 h, dose 100-300 mg/kg, time 14 day
MDA-MB-436 [14] = experiment: Antitumor activity against human MDA-MB-436 cells xenografted in female NOD/SCID mouse assessed as inhibition of tumor growth administered orally once every other day for 28 days; format: functional, cell-based; conditions: dose 0.3-3 mg/kg, route po, time 28.0 day
[15] = Sub-acute toxicity in Kunming mouse assessed as change UREAL level at 100 to 300 mg/kg administered via gavage for 14 days; format: organism-based; conditions: in vivo, po, 336 h, dose 100-300 mg/kg, time 14 day
[16] = Acute toxicity in Kunming mouse assessed as change in cellular morphology of lung at 100 mg/kg administered once every other day via gavage for 14 days by H and E staining based analysis; format: organism-based; conditions: in vivo, po, 336 h, time 14 day
[17] = target: T1, Poly [ADP-ribose] polymerase 1 (Homo sapiens, UniProt P09874); experiment: Binding affinity to PARP1 (unknown origin) assessed as DNA trapping activity incubated for 1 hr by Envision 2105 plate reader analysis
[18] = Sub-acute toxicity in Kunming mouse assessed as change ALB2 level at 100 to 300 mg/kg administered via gavage for 14 days; format: organism-based; conditions: in vivo, po, 336 h, dose 100-300 mg/kg, time 14 day
[19] = Sub-acute toxicity in Kunming mouse assessed as change ASTL level at 100 to 300 mg/kg administered via gavage for 14 days; format: organism-based; conditions: in vivo, po, 336 h, dose 100-300 mg/kg, time 14 day
MDA-MB-436 [20] = experiment: Antitumor activity against luciferase tagged human MDA-MB-436 cells xenografted in female NOD-SCID mouse assessed as median survival time at 10 mg/kg, po administered once a day for 34 days; format: functional; conditions: time 34 day
[21] = Sub-acute toxicity in Kunming mouse assessed as change CK level at 30 to 100 mg/kg administered via gavage once every other day for 14 days; format: organism-based; conditions: in vivo, po, 336 h, dose 30-100 mg/kg, time 14 day
[22] = target: Poly [ADP-ribose] polymerase 2 (Homo sapiens, UniProt Q9UGN5); experiment: Binding affinity to PARP2 (unknown origin) assessed as DNA trapping activity incubated for 1 hr by Envision 2105 plate reader analysis
MDA-MB-436 [23] = experiment: Antitumor activity against human MDA-MB-436 cells xenografted in female NOD/SCID mouse assessed as tumor growth inhibition at 0.3 mg/kg, po administered once every other day for 28 days relative to control; format: functional; parameters: scale not given: the % may be the effect or the level left; conditions: time 28 day
[24] = Apparent volume of distribution in male Balb/c mouse at 1 mg/kg, iv measured upto 96 hrs by LC-MS/MS analysis; format: ADME, organism-based; conditions: in vivo, iv, 1 mg/kg, 96 h
[25] = Acute toxicity in Kunming mouse assessed as change in body weight at 30 to 100 mg/kg administered via gavage once every other day for 14 days; format: organism-based; conditions: in vivo, po, 336 h, dose 30-100 mg/kg, time 14 day
[26] = target: T1, Poly [ADP-ribose] polymerase 1; experiment: Inhibition of PARP1 in wild type human A549 cells preincubated with compound for 1 hr followed by H2O2 addition and measured after 5 mins by PARylation inhibition assay; format: cell-based
MDA-MB-436 [27] = experiment: Antitumor activity against luciferase tagged human MDA-MB-436 cells xenografted in female NOD-SCID mouse assessed as median survival time at 3 mg/kg, po administered once a day for 34 days; format: functional; conditions: time 34 day
[28] = Sub-acute toxicity in Kunming mouse assessed as change CREA2 level at 30 to 100 mg/kg administered via gavage once every other day for 14 days; format: organism-based; conditions: in vivo, po, 336 h, dose 30-100 mg/kg, time 14 day

T1 sequence (P09874 whole entry): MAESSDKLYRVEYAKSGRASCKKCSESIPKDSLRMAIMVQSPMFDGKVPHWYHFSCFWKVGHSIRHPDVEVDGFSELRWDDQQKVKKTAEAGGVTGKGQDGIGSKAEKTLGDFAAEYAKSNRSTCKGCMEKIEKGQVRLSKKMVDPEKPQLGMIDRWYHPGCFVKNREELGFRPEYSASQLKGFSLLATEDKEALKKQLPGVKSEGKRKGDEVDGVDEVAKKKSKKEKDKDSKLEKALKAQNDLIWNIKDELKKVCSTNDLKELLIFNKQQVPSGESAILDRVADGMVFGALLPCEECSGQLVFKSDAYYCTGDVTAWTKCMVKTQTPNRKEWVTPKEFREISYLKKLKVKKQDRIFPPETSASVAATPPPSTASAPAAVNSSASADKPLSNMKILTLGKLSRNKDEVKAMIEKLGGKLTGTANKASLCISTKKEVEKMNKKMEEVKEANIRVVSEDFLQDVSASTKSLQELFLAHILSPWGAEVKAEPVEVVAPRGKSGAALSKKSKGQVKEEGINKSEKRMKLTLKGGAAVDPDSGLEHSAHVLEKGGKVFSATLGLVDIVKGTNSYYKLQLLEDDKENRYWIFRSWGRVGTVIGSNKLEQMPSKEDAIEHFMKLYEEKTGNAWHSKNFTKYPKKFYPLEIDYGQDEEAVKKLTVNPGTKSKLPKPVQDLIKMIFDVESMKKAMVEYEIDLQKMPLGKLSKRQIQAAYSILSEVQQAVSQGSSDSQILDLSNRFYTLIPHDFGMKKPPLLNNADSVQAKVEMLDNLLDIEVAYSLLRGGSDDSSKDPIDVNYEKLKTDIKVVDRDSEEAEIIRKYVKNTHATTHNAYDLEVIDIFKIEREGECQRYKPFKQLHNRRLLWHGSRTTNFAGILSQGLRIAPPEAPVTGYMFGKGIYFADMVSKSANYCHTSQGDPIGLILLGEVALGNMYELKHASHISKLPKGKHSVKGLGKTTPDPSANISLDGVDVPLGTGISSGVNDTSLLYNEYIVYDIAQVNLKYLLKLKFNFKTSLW
Chain of Poly [ADP-ribose] polymerase 2 (Q9UGN5 whole entry): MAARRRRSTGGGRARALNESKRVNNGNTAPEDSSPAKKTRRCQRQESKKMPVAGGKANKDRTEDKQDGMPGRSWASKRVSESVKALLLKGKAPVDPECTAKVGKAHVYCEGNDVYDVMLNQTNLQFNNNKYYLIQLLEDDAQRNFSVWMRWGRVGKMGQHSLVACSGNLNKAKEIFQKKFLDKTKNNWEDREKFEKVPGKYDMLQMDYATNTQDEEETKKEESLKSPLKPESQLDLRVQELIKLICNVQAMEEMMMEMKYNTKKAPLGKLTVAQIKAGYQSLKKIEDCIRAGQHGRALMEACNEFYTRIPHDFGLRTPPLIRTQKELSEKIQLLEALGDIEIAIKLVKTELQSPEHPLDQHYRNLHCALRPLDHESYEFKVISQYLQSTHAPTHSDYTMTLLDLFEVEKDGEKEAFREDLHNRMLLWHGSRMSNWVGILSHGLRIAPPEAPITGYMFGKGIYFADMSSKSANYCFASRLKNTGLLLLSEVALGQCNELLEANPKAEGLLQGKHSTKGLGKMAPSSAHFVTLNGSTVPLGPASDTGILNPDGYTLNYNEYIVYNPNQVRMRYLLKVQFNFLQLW

CCc1cc2ncc(CN3CC=C(c4ccc(C#N)cn4)CC3)cc2[nH]c1=O
half-life [1]: 47.4 h
Activity [2]: Non-toxic
inhibition (DLD-1): Dose-dependent-effect
Tmax [3]: 4.8 min
Activity (MDA-MB-436 [4]): Active
Activity [5]: Non-toxic
half-life [6]: 27.8 h
Cmax [7]: 13900 ng/mL
Activity [8]: Non-toxic
Activity (MDA-MB-436 [9]): 9.92%
Activity [10]: Non-toxic
Activity [11]: Non-toxic
t1/2 [12]: 107.53 h
Activity [13]: Non-toxic
Activity (MDA-MB-436 [14]): Dose-dependent-effect
Activity [15]: Non-toxic
Activity [16]: Non-toxic
EC50 [17]: 0.9 nM
Activity [18]: Non-toxic
Activity [19]: Non-toxic
Survival (MDA-MB-436 [20]): 70 days
Activity [21]: Non-toxic
EC50 [22]: 4330 nM
Activity (MDA-MB-436 [23]): 89.9%
Vz [24]: 0.16 L/kg
Activity [25]: Non-toxic
IC50 [26]: 4.1 nM
Survival (MDA-MB-436 [27]): >60 days
Activity [28]: Non-toxic
